Source: patent US20230339866A1, “Quinazoline compounds and the use thereof in the treatment of cancer” (TROBIO THERAPEUTICS PTY LTD, priority 2020, published 2023)
Like-named read-outs stand apart in the source and are kept apart here.

What was measured:
A2780 (ovarian) = assay: Anti-proliferative activity (Cell-Titre luminescence) against A2780 ovarian cancer cells; format: cell-based; conditions: Homo sapiens, A2780, 72 h, 72 h exposure, Cell-Titre luminescent reagent
In short: (§1)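 EC50 derived by nonlinear variable-slope sigmoidal fit of luminescent Cell-Titre viability, normalised to vehicle control. Compound (0.1–30 μM, six concentrations) applied for 72 h after 24 h attachment at 37 °C, 5% CO2.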

[1] = system: SK-N-SH neuroblastoma cells; assay: Anti-proliferative activity (MTS assay) against SK-N-SH neuroblastoma cells; format: cell-based; conditions: Homo sapiens, SK-N-SH, 72 h
Experimental: The ability of compounds of the disclosure to inhibit the proliferation of SK-N-SH neuroblastoma cells was also assessed. […] Cell viability was normalised to control (vehicle alone) and dose response curves and IC50 values (Table 4) were determined using Graph Pad Prism 6.

A549 (NSCLC) = assay: Anti-proliferative activity (Cell-Titre luminescence) against A549 non-small cell lung cancer cells; format: cell-based; conditions: Homo sapiens, A549, 72 h, 72 h exposure, Cell-Titre luminescent reagent
In short: as §1

Tpm3.1 [2] = biological target: T1, Tpm3.1 (Homo sapiens, UniProt P06753); assay: Circular dichroism spectroscopy, thermal unfolding of Tpm3.1 peptides; format: binding; parameters: N-terminus (residues 2-80 with an initial Ala-Gly dipeptide to mimic N-terminal acetylation) of Tpm3.1; Peptides corresponding to the C-terminus (residues 139-248) and N-terminus; made in house; conditions: test compound 100 μM, peptide 20 μM, CD at 222 nm
Experimental: The interactions of compounds 11, 13, 32 and 92 with the N-terminus and overlap region of Tpm3.1 were measured using circular dichroism (CD) spectroscopy (see FIG. 1). Peptides corresponding to the C-terminus (residues 139-248) and N-terminus (residues 2-80 with an initial Ala-Gly dipeptide to mimic N-terminal acetylation) of Tpm3.1 were prepared as described in the literature (Janco et al., 2019). CD spectra and thermal unfolding isotherms of N_82AA_Tpm3.1 and C_109AA_Tpm3.1 peptides were acquired on a Chirascan Plus CD Spectrometer (Applied Photophysics Limited, U.K.) in stoppered 0.5 mm cuvettes (48/Q/0.5; Starna Scientific Ltd.). Proteins were dialyzed O/N against 10 mM NaH2 PO4, 150 mM NaCl, 75 μM TCEP (added prior to experiment), 1% (v/v) acetonitrile pH 7 buffer. Final concentration of peptides was 20 μM. Tpm samples containing the test compound (100 μM) were incubated at 37° C. O/N. CD spectra were measured from 195 to 260 nm with a 1 nm step size and a […], taking 3 to 4 averages at 37° C. The thermal unfolding was carried at 222 nm over the range 20-85° C. at the rate of 1° C./min. Sample was cooled down to the initial temperature and heating procedure was repeated 2 to 3 times. To obtain information of the major thermal transitions from individual isotherms, data were further smoothed by the Savitzky-Golay method (5-point window), differentiated and then fitted to multiple Gaussian peaks as described previously (Janco et al., 2012) (FIG. 2).

Caco-2 (colorectal) = assay: Anti-proliferative activity against Caco-2 colorectal cancer cells; format: cell-based; conditions: Homo sapiens, 72 h exposure
Experimental: (§2) The ability of compounds of the invention to inhibit the proliferation of cancer cells representative of non-small cell lung cancer and ovarian cancer (Table 2), pancreatic cancer, colorectal cancer and prostate cancer (Table 3) was assessed. Briefly, a predetermined number of cells as calculated from cell growth assays for each of the cell lines employed were seeded into their respective culture medium (using ATCC culture parameters—http://www.atcc.org) and cultured for 24 h at 37° C. and 5% CO2 in 96-well culture plates. Once attached, each cell line was then exposed to various concentrations of each respective analogue (30, 10, 3, 1, 0.3 and 0.1 μM), cultured for a further 72 h and exposed to Cell-Titre luminescent reagent (100 μL/well) for a further 30 min. Luminescence was captured using an EnVision multilabel reader and the data for each analogue concentration compared against no treatment control. Cell viability was normalised to control (vehicle alone) and dose response curves, and half maximal effective concentration (EC50) values were determined using Graph Pad Prism 6 (nonlinear regression sigmoidal dose-response variable slope).

PC3 (prostate) = assay: Anti-proliferative activity against PC3 prostate cancer cells; format: cell-based; conditions: 72 h exposure
Experimental: as §2

[3] = system: Tpm3.1-containing actin microfilaments; assay: Disruption of Tpm3.1-containing actin microfilaments in SK-N-SH cells (imaging and quantitation); format: cell-based; conditions: SK-N-SH cells expressing Tpm3.1-mCherry, 24 hours, two concentrations
Experimental: The ability of compounds 57, 87 and 92 to disrupt Tpm3.1-containing actin microfilaments was investigated in SK-N-SH neuroblastoma cells that express Tpm3.1 labelled with the mCherry fluorophore. Cells were seeded at 3×10^4 cells per well in a volume of 1000 μL complete media onto a 12 well plate containing 13 mm coverslips and left to plate down for 24 hours prior to treatment. Cells were then treated with DMSO and two concentrations of the test compounds. 24 hours post-treatment, cells were fixed with 16% paraformaldehyde (PBS) and stained with 488-Atto-Phalloidin to visualise the actin filament bundles. Single plane images were obtained using the Olympus IX83 epi-fluorescence microscope. Ten fields of view were collected for both Tpm3.1 mCherry fluorophore (FIG. 4) and 488-Atto-Phalloidin (FIG. 5) with each treatment condition.
Quantitation of either Tpm3.1 mCherry filaments or 488-Atto-Phalloidin filaments was performed using ImageJ 1.52p software (ImageJ, NIH). The mean pixel intensity from a cell was measured by using a line across the entire cell cytoplasmic area above or below the nuclear region. The line was made to cross the filament bundles at a […] for the measurement rather than run along a single filament. A total of n=100 cells were measured from ten fields of view. Cells with pixel intensities that were more than twice the average intensity in the field were excluded from the measurement. The mean pixel intensity from n=100 cells was imported into Microsoft Excel to obtain the average intensity of either Tpm3.1 mCherry filaments or 488-Atto-Phalloidin filaments from each treatment condition. Values were normalised as a percent of the 0 μM control in order to generate a bar graph.

MIA PaCa-2 (pancreatic) = assay: Anti-proliferative activity against MIA PaCa-2 pancreatic cancer cells; format: cell-based; conditions: Homo sapiens, 72 h exposure
Experimental: as §2

[4] = system: A2780 ovarian cancer cells; assay: cells; conditions: Homo sapiens, A2780, 72 h, read-out: IC50 values used for the dose matrix (compounds)
Experimental: (§3) The A2780 cell line was maintained as a monolayer in Dulbeccos Modified Eagles medium (DMEM) supplemented with 10% foetal bovine serum (FBS) and grown at 37° C. in a humidified atmosphere with 5% CO2. […] Each screening plate contained one 6×6 dose matrix for two drugs using two-fold dilution steps. […] Viability was measured after 72 hours using a standard MTS assay.
(§4) Synergistic drug interactions were determined for each pairwise drug combination by applying the Bliss-independence model that assumes independence of drug mechanisms.
(§5) The Bliss additivism model was used to calculate a predicted combined response C to two single agents with responses A and B (using GI values), as follows:
(§6) The final score for any combination was reported as the difference between the value predicted by the additive model and the experimentally observed value, normalised to 100. Using GI values the maximum possible synergy score is 100, with 0 indicating no synergy and negative indicating possible antagonism. Scores were also reported as a “Max synergy” score, which is the highest individual synergy score for each combination matrix, and a “Total synergy” score, which was obtained by summation of each individual synergy score for the matrix.

[5] = system: A2780 ovarian cancer cells; conditions: for Paclitaxel Max. Synergy / Paclitaxel Total Synergy: combination with paclitaxel; for Paclitaxel Max. Synergy / Paclitaxel Total Synergy / Vinorelbine Max. Synergy / Vinorelbine Total Synergy: Bliss score; for Paclitaxel Max. Synergy / Vinorelbine Max. Synergy: highest individual score of 6×6 matrix; for Paclitaxel Total Synergy / Vinorelbine Total Synergy: sum over matrix; for Vinorelbine Max. Synergy / Vinorelbine Total Synergy: combination with vinorelbine
Experimental: as §3, §4, §5, §6

Tpm3.1 [6] = biological target: T1, Tpm3.1; assay: Actin depolymerisation assay; format: biochemical; conditions: 50 μmol/L test compound, pyrene-labelled F-actin, 160 minutes
Experimental: A 12 μmol/L solution of labelled F-actin was prepared by polymerising the monomeric actin (35% pyrene labelled Rabbit Muscle (Cytoskeleton Inc)) into filaments in the presence of buffer T (100 mmol/L NaCl; 10 mmol/L Tris HCl pH 7.5; 2 mmol/L MgCl2; 1 mmol/L EGTA; 0.5 mmol/L DTT) with added ATP (0.2 mmol/L), for 1 hour in the dark at room temperature. Tpm3.1 (10 μmol/L) was reduced in buffer T containing 1 mmol/L DTT at 70° C. for 6 minutes and centrifuged at 60,000 rpm for 30 minutes to remove nonreduced dimers. […] Duplicate samples were diluted 12-fold using an F-actin polymerisation buffer (100 mmol/L NaCl; 10 mmol/L Tris HCl pH 7; 2 mmol/L MgCl2; 1 mmol/L EGTA; 0.2 mmol/L ATP; 1 mmol/L DTT) and the depolymerisation rates of F-actin alone, F-actin/Tpm3.1, and the F-actin/Tpm3.1/test compound filament complex were measured using a Costar 3915 fluorescence plate reader (407 nm) at 36-second intervals for 160 minutes at room temperature. Data were normalized to the initial fluorescence value and polymerisation curves of duplicate samples were fitted to a two-phase exponential decay model using OriginPro 9.1 (OriginLab) (FIG. 3A). Percent polymerisation was determined at t160 as a function of to (100%) (FIG. 3B, p<0.0001).
Target sequence in this assay (P06753 1-248 isoform P06753-2): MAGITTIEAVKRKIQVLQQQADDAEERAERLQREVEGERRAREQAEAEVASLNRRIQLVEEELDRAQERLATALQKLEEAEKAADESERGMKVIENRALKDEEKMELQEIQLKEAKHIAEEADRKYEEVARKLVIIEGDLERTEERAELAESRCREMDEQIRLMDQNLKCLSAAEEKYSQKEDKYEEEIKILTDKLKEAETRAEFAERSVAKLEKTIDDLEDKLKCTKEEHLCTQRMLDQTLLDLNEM

IC50 (A2780 (ovarian))	IC50 [1]	IC50 (A549 (NSCLC))	Effect on melting profile of the Tpm3.1 N-terminal peptide construct (Tpm3.1 [2])	Effect on stability (melting profile) of the overlap complex formed by the N- and C-terminal peptides (Tpm3.1 [2])	Effect on stability of the Tpm3.1 N-terminal peptide (Tpm3.1 [2])	IC50 (Caco-2 (colorectal))	IC50 (PC3 (prostate))	IC50 (MIA PaCa-2 (pancreatic))	IC50 [4]	Compound	Disruption of Tpm3.1-containing actin microfilaments [3]	Paclitaxel Max. Synergy [5]	Paclitaxel Total Synergy [5]	Vinorelbine Max. Synergy [5]	Vinorelbine Total Synergy [5]	Inhibition of Tpm3.1 protection of actin filaments from depolymerisation (Tpm3.1 [6])	IC50 ([5]; read-out: IC50 values used for the dose matrix (cytotoxic agents), A2780, single agent, MTS 72 hours)
5.65 µM	1.72 µM	6.5 µM	alter the melting profile	–	stabilizing effect	–	–	–	–	CN1CCN(CCNc2nc(-c3cc[nH]c3)nc3ccccc23)CC1 [Compound 13, N-(2-(4-methylpiperazin-1-yl)ethyl)-2-(1H-pyrrol-3-yl)quinazolin-4-amine]	–	–	–	–	–	–	–
2.6 µM	1.38 µM	2.36 µM	–	–	–	4.33 µM	4.12 µM	2.75 µM	3000 nM	Fc1cccc(CCNc2nc(NCCc3c[nH]cn3)c3ccccc3n2)c1 [Compound 87, N^4-(2-(1H-imidazol-4-yl)ethyl)-N^2-(3-fluorophenethyl)quinazoline-2,4-diamine]	disrupt Tpm3.1-containing actin microfilaments in a dose-dependent manner	9.54	28.53	24.46	160.51	–	–

Further lines, the molecule ahead of its results:

Compound	IC50 (A2780 (ovarian))	IC50 [1]	IC50 (A549 (NSCLC))	Effect on melting profile of the Tpm3.1 N-terminal peptide construct (Tpm3.1 [2])	Effect on stability (melting profile) of the overlap complex formed by the N- and C-terminal peptides (Tpm3.1 [2])	Effect on stability of the Tpm3.1 N-terminal peptide (Tpm3.1 [2])	IC50 (Caco-2 (colorectal))	IC50 (PC3 (prostate))	IC50 (MIA PaCa-2 (pancreatic))	IC50 [4]	Disruption of Tpm3.1-containing actin microfilaments [3]	Paclitaxel Max. Synergy [5]	Paclitaxel Total Synergy [5]	Vinorelbine Max. Synergy [5]	Vinorelbine Total Synergy [5]	Inhibition of Tpm3.1 protection of actin filaments from depolymerisation (Tpm3.1 [6])	IC50 ([5]; read-out: IC50 values used for the dose matrix (cytotoxic agents), A2780, single agent, MTS 72 hours)
CN1CCN(CCNc2nc(-c3ccsc3)nc3ccccc23)CC1 [Compound 11, N-(2-(4-methylpiperazin-1-yl)ethyl)-2-(thiophen-3-yl)quinazolin-4-amine]	6.43 µM	9.11 µM	10.3 µM	alter the melting profile	decreasing	decrease the stability	–	–	–	–	–	–	–	–	–	–	–
OCCNc1nc(NCc2ccc(C(F)(F)F)cc2)nc2ccccc12 [Compound 32, 2-((2-((4-(trifluoromethyl)benzyl)amino)quinazolin-4-yl)amino)ethan-1-ol]	1.28 µM	4.09 µM	4.63 µM	alter the melting profile	increasing	decrease the stability	–	–	–	–	–	–	–	–	–	–	–
CCc1ccc(CCNc2nc(NCCN3CCN(C)CC3)c3ccccc3n2)cc1 [Compound 57, N^2-(4-ethylphenethyl)-N^4-(2-(4-methylpiperazin-1-yl)ethyl)quinazoline-2,4-diamine]	0.655 µM	1.11 µM	1.53 µM	–	–	–	1.12 µM	1.48 µM	1.02 µM	–	disrupt Tpm3.1-containing actin microfilaments in a dose-dependent manner	–	–	–	–	–	–
OCCCNc1nc(NCCc2cccc(C(F)(F)F)c2)nc2ccccc12 [Compound 92, 3-((2-((3-(trifluoromethyl)phenethyl)amino)quinazolin-4-yl)amino)propan-1-ol]	2.22 µM	2 µM	1.3 µM	alter the melting profile	–	decrease the stability	2.48 µM	4.49 µM	3.19 µM	5000 nM	disrupt Tpm3.1-containing actin microfilaments in a dose-dependent manner	17.97	100.06	27.55	204.68	inhibit the ability of Tpm3.1 to protect actin filaments from depolymerisation	–
CCC1=C[C@@H]2CN(C1)Cc1c([nH]c3ccccc13)[C@@](C(=O)OC)(c1cc3c(cc1OC)N(C)[C@H]1[C@@](O)(C(=O)OC)[C@H](OC(C)=O)[C@]4(CC)C=CCN5CC[C@]31[C@@H]54)C2 [vinorelbine, reference compound]	–	–	–	–	–	–	–	–	–	–	–	–	–	–	–	–	4 nM
